# Data from the supplement of paper PMC3770661.
# Where a name gives a salt, the structure may show the parent alone. ± gives the uncertainty stated by the source.
# System: HepG2 (L1.3 5'UTR promoter firefly luciferase reporter)
# Assay: L1 promoter activity (FLuc/RLuc) relative to DMSO vehicle control (% of control); higher = stronger L1 promoter activation
# Experimental: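 HepG2 cells in 96-well plates were cotransfected with pGL4.11-L1.3 5'UTR (firefly luciferase driven by the human L1.3 5'UTR promoter) and pGL4.74 (HSV-TK Renilla luciferase internal control), then treated with compound for 6 or 24 h. FLuc/RLuc ratio was normalised to the DMSO vehicle control (% of control); concentrations where RLuc fell below 50% of control were excluded (N.D.). Mean of at least two independent experiments in duplicate or quadruplicate.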
# [1] = concentration (uM unless unit written): 10, treatment time: 6 h
# [2] = concentration (uM unless unit written): 10, treatment time: 24 h
# [3] = concentration (uM unless unit written): 25, treatment time: 6 h
# [4] = concentration (uM unless unit written): 25, treatment time: 24 h
# [5] = concentration (uM unless unit written): 50, treatment time: 6 h
# [6] = concentration (uM unless unit written): 50, treatment time: 24 h
# [7] = concentration (uM unless unit written): 100, treatment time: 6 h
# [8] = concentration (uM unless unit written): 100, treatment time: 24 h
# [9] = concentration (uM unless unit written): 0.1, treatment time: 6 h
# [10] = concentration (uM unless unit written): 200, treatment time: 6 h
# [11] = concentration (uM unless unit written): 0.1, treatment time: 24 h
# [12] = concentration (uM unless unit written): 0.5, treatment time: 6 h
# [13] = concentration (uM unless unit written): 0.5, treatment time: 24 h
# [14] = concentration (uM unless unit written): 1, treatment time: 6 h
# [15] = concentration (uM unless unit written): 1, treatment time: 24 h
# [16] = concentration (uM unless unit written): 125, treatment time: 6 h
# [17] = concentration (uM unless unit written): 125, treatment time: 24 h
# [18] = concentration (uM unless unit written): 250, treatment time: 6 h
# [19] = concentration (uM unless unit written): 250, treatment time: 24 h
# [20] = concentration (uM unless unit written): 500, treatment time: 6 h
smiles,measurement,setting,value
COC(=O)[C@H](c1ccccc1Cl)N1CCc2sccc2C1 [Clopidogrel],L1 promoter activity,[1],96.7 ± 8.6
same,L1 promoter activity,[2],113 ± 5.2
same,L1 promoter activity,[3],98.5 ± 12
same,L1 promoter activity,[4],113 ± 14
same,L1 promoter activity,[5],92.9 ± 6
same,L1 promoter activity,[6],110 ± 9.2
same,L1 promoter activity,[7],84.6 ± 4.5
same,L1 promoter activity,[8],107 ± 12
COc1cc2c(c(OC)c1OC)-c1ccc(OC)c(=O)cc1[C@@H](NC(C)=O)CC2 [Colchicine],L1 promoter activity,"concentration (uM unless unit written): 0.01, treatment time: 6 h",100 ± 17
same,L1 promoter activity,"concentration (uM unless unit written): 0.01, treatment time: 24 h",100 ± 18
same,L1 promoter activity,"concentration (uM unless unit written): 0.05, treatment time: 6 h",99.8 ± 4.3
same,L1 promoter activity,[9],108 ± 32
O=P1(N(CCCl)CCCl)NCCCO1 (stereo unspecified) [Cyclophosphamide],L1 promoter activity,"concentration (uM unless unit written): 10000, treatment time: 6 h",96.3 ± 14
same,L1 promoter activity,"concentration (uM unless unit written): 10000, treatment time: 24 h",95.3 ± 11
same,L1 promoter activity,"concentration (uM unless unit written): 20000, treatment time: 6 h",93.6 ± 22
same,L1 promoter activity,"concentration (uM unless unit written): 20000, treatment time: 24 h",77.9 ± 4.5
same,L1 promoter activity,"concentration (uM unless unit written): 40000, treatment time: 6 h",98.3 ± 8.4
CN1CCC(=C2c3ccccc3C=Cc3ccccc32)CC1 [Cyproheptadine hydrochloride sesquihydrate],L1 promoter activity,[5],90.1 ± 17
same,L1 promoter activity,[6],70.2 ± 14
same,L1 promoter activity,[7],74.7 ± 30
same,L1 promoter activity,[10],47.2 ± 12
C=C1[C@@H](C)[C@H]2[C@H](Cc3ccccc3)NC(=O)[C@]23[C@H](OC(C)=O)/C=C/[C@@](C)(O)C(=O)[C@@H](C)C/C=C/[C@H]3[C@@H]1O [Cytochalasin D],L1 promoter activity,[9],110 ± 13
same,L1 promoter activity,[11],106 ± 11
same,L1 promoter activity,[12],101 ± 7.4
same,L1 promoter activity,[13],128 ± 8.5
same,L1 promoter activity,[14],106 ± 12
same,L1 promoter activity,[15],167 ± 16
same,L1 promoter activity,[1],98.6 ± 13
same,L1 promoter activity,[2],295 ± 20
Nc1ccn([C@@H]2O[C@H](CO)[C@@H](O)[C@@H]2O)c(=O)n1 [Cytosine arabinoside],L1 promoter activity,[16],101 ± 8
same,L1 promoter activity,[17],106 ± 3.7
same,L1 promoter activity,[18],95.2 ± 5.5
same,L1 promoter activity,[19],105 ± 4.4
same,L1 promoter activity,[20],102 ± 8.1
same,L1 promoter activity,"concentration (uM unless unit written): 500, treatment time: 24 h",103 ± 6.2
O=C(O)Cc1ccccc1Nc1c(Cl)cccc1Cl [Diclofenac],L1 promoter activity,[16],109 ± 7.5
same,L1 promoter activity,[17],68.5 ± 3.6
same,L1 promoter activity,[18],107 ± 1.6
same,L1 promoter activity,[19],59.6 ± 5.5
CCOC(=O)CC(O)C(=O)OCC (stereo unspecified) [Diethyl malate],L1 promoter activity,"concentration (uM unless unit written): 375, treatment time: 6 h",127 ± 13
same,L1 promoter activity,"concentration (uM unless unit written): 750, treatment time: 6 h",159 ± 18
O=C(O)c1cc(-c2ccc(F)cc2F)ccc1O [Diflunisal],L1 promoter activity,"concentration (uM unless unit written): 62.5, treatment time: 6 h",148 ± 6.5
same,L1 promoter activity,"concentration (uM unless unit written): 62.5, treatment time: 24 h",117 ± 8.5
same,L1 promoter activity,[16],136 ± 12
same,L1 promoter activity,[17],156 ± 4.7
same,L1 promoter activity,[18],159 ± 21
COc1cccc2c1C(=O)c1c(O)c3c(c(O)c1C2=O)C[C@@](O)(C(=O)CO)C[C@@H]3O[C@H]1C[C@H](N)[C@H](O)[C@H](C)O1 [Doxorubicin],L1 promoter activity,[11],88.8 ± 15
same,L1 promoter activity,[12],101 ± 33
same,L1 promoter activity,[13],40.2 ± 13
same,L1 promoter activity,[14],98.1 ± 26
same,L1 promoter activity,[15],30.3 ± 5.5
NC1=NCC2c3ccccc3Cc3ccccc3N12 (stereo unspecified) [Epinastine hydrochloride],L1 promoter activity,[7],93.6 ± 15
same,L1 promoter activity,[8],85.9 ± 26
same,L1 promoter activity,[10],77.8 ± 12
same,L1 promoter activity,[20],27.1 ± 3.8
CCOC(=O)[C@@]1(CCCCCCOc2ccc(Cl)cc2)CO1 [Etomoxir],L1 promoter activity,[5],127 ± 11
same,L1 promoter activity,[6],111 ± 15
same,L1 promoter activity,[7],147 ± 12
same,L1 promoter activity,[8],143 ± 17
same,L1 promoter activity,[20],181 ± 23
COc1cc([C@@H]2c3cc4c(cc3[C@@H](O[C@@H]3O[C@@H]5CO[C@@H](C)O[C@H]5[C@H](O)[C@H]3O)[C@H]3COC(=O)[C@H]23)OCO4)cc(OC)c1O [Etoposide],L1 promoter activity,[1],90.4 ± 7.5
same,L1 promoter activity,[2],95.7 ± 4.1
same,L1 promoter activity,[3],100 ± 30
same,L1 promoter activity,[4],108 ± 16
same,L1 promoter activity,[5],98.6 ± 21
same,L1 promoter activity,[6],138 ± 70
CC(C)OC(=O)C(C)(C)Oc1ccc(C(=O)c2ccc(Cl)cc2)cc1 [Fenofibrate],L1 promoter activity,[1],117 ± 9.8
same,L1 promoter activity,[2],108 ± 5.3
same,L1 promoter activity,[5],126 ± 11
same,L1 promoter activity,[6],127 ± 10
same,L1 promoter activity,[7],141 ± 12
same,L1 promoter activity,[8],163 ± 24
OC(Cn1cncn1)(Cn1cncn1)c1ccc(F)cc1F [Fluconazole],L1 promoter activity,"concentration (uM unless unit written): 1250, treatment time: 6 h",108 ± 11
same,L1 promoter activity,"concentration (uM unless unit written): 1250, treatment time: 24 h",99.5 ± 7.4
same,L1 promoter activity,"concentration (uM unless unit written): 2500, treatment time: 6 h",99.2 ± 6.7
same,L1 promoter activity,"concentration (uM unless unit written): 2500, treatment time: 24 h",92.7 ± 13
